Literature values as cited in patent publication US8980299B2, “Method of making a vascular closure device” (Cordis Corporation, priority 2007, dated 2015).

Test system: S. aureus
Details: suitable growth medium; Bhargava et al., Am J Infect Control, June 1996

In the case of `Oc1cc(Cl)ccc1Oc1ccc(Cl)cc1Cl` [2,4,4′-trichloro-2′hydroxydiphenyl ether, 2,4,4′-trichloro-2′-hydroxydiphenyl ether], the “minimum inhibitory concentration (MIC) against S. aureus” value is listed as 0.01 ppm.
